Laboratory results reported in patent US12329799B2, “Peptidyl inhibitors of calcineurin-NFAT interaction” (Ohio State Innovation Foundation, priority 2018, dated 2025).
Non-standard residues stand in square brackets, D forms with d. 2Nal = N[C@@H](Cc1ccc2ccccc2c1)C(=O)O

How the values were obtained:
in vitro = in vitro ADME; set-up: dose or concentration left out as unconfirmed; details: mouse, plasma; for fraction unbound at 5 h: pH 7.4
Protocol: (§1) Plasma binding was assessed using mouse plasma obtained from in-life studies. CNI103 was diluted to […] in pre-warmed mouse plasma. The solution was added to the left chamber of a commercial plate based RED (rapid equilibrium dialysis) device. Isotonic sodium phosphate buffer (100 mM sodium phosphate, 100 mM sodium chloride, pH 7.4) was added to the outer chamber of the RED device and the plate was incubated at 37° C. for five hours. Aliquots of the buffer and the plasma were withdrawn before and after the incubation and the concentrations of free and bound test compound were determined by LC/MS/MS analysis. To test for plasma stability, the dosing solution was also incubated at 37° C. for 5 hours and the concentration of CNI103 was determined by LC/MS/MS analysis as described above.
(§2) The calculation of percentage binding is calculated using the following equations and the results are presented in Table 13: Binding %=(Cpe−Cb)/Cpe×100 • Cpe=Conc. of test compound in plasma at equilibrium • Cb=Conc. of test compound in buffer at equilibrium % Stability of test compound=(Conc. of stability sample/Conc. of time zero sample)×100 % Recovery=(Cpe+Cb)/Conc. of stability sample×100

plasma protein = assay: in vitro; format: in vitro ADME; set-up: dose or concentration left out as unconfirmed; details: mouse, pH 7.4
Protocol: as §1, §2

[1] = Caco-2 permeability assay; format: in vitro ADME; details: human, Caco-2, pH 7.4
Protocol: (§3) Caco-2 permeability assay. To assay the permeability of test compounds by Caco-2 cell model, Caco-2 cells were cultured to confluency before being trypsinized and seeded onto filter transwell inserts at a density of 30,000 cells/well in DMEM medium. Cells were cultured in a humidified atmosphere with 5% CO2 at 37° C. After overnight attachment, cell medium was replaced with fresh medium at both apical and basolateral sides every other day. The cell monolayers are ready for the assay 20 days post seeding. […] The dosing solution at 10 μM was obtained by diluting 10 mM stock solution in HBSS medium (pH 7.4, 25 mM HEPES) freshly before the assay. Terfenadine (25 ng/mL) and Tolbutamide (50 ng/mL) were added into dosing solution as internal standards. […] The culture medium from either the basolateral side (plate B) or apical side (plate A) were aspirated and then rinsed with HBSS medium once. Afterwards, the dosing medium was added to either basolateral or apical side. Following the incubation, 100 microliter samples from both sides were harvested at time 0 and time 90 min. Samples were quenched with acetonitrile/methanol (1:1 v/v), centrifuged, and analyzed on a Shimadzu reversed-phase HPLC and Sciex API4500 Q trap instrument.
(§4) Permeability parameters were calculated using the following equations and shown in Table 10: Papp=(Conc.receiver,90 min*Volumereceiver)/(Time*Membrane Area*Conc.donor,0 min) Efflux Ratio=Papp[B to A]/Papp[A to B]

Caco-2 cell monolayers = assay: Caco-2 permeability assay; format: in vitro ADME
Protocol: as §3, §4

HeLa cells = details: 100% = equal cargo concentration in cytosol and extracellular medium; cited from earlier work

Compound | remaining at 5 h (in vitro) [%] | fraction unbound at 5 h (in vitro) | recovery at 5 h (plasma protein) [%] | Papp B→A at 90 min, 10 μM ([1]; N = 2, 10 μM, 90 min) [×10⁻⁶ cm/s] | efflux ratio at 90 min, 10 μM ([1]; Papp[B to A]/Papp[A to B]) | Pgp Substrate (Caco-2 cell monolayers) | absolute cytosolic delivery efficiency (HeLa cells) [%]
CC(=O)CC(c1ccccc1)c1c(O)c2ccccc2oc1=O (stereo not shown) [Warfarin] | 101 | 0.086 | 103 |  |  |  | 
CC(C)NCC(O)COc1cccc2ccccc12 (stereo not shown) [Propranolol, reference compound] |  |  |  | 26 | 0.7 | No | 
C=C[C@H]1C[N@@]2CC[C@H]1C[C@@H]2[C@@H](O)c1ccnc2ccc(OC)cc12 [Quinidine] | 107 | 0.243 | 102 |  |  |  | 
CCOc1ccc(NC(C)=O)cc1 [Phenacetine] | 73.8 | 0.635 | 73.3 |  |  |  | 
cyclic (fΦRrRrQ) (cyclo([dF][2Nal]R[dR]R[dR]Q); SMILES N=C(N)NCCC[C@@H]1NC(=O)[C@H](Cc2ccc3ccccc3c2)NC(=O)[C@@H](Cc2ccccc2)NC(=O)[C@H](CCC(N)=O)NC(=O)[C@@H](CCCNC(=N)N)NC(=O)[C@H](CCCNC(=N)N)NC(=O)[C@@H](CCCNC(=N)N)NC1=O) [CPP9] |  |  |  |  |  |  | 62
